Read-outs that look alike come from different tables or passages of the source.
Legend:
[1] = target: T1, full-length beta-Catenin (Uniprot ID P35222) (Homo sapiens, UniProt P35222); test: Fluorescence polarization IC50 (beta-catenin / 5FAM-TCF4 10-53 competition); type: binding; settings: fluorescence polarization; read-out: beta-Catenin FP IC50
T1 construct: 10 nM full-length beta-Catenin (Uniprot ID P35222)
T1 sequence (P35222 1-781): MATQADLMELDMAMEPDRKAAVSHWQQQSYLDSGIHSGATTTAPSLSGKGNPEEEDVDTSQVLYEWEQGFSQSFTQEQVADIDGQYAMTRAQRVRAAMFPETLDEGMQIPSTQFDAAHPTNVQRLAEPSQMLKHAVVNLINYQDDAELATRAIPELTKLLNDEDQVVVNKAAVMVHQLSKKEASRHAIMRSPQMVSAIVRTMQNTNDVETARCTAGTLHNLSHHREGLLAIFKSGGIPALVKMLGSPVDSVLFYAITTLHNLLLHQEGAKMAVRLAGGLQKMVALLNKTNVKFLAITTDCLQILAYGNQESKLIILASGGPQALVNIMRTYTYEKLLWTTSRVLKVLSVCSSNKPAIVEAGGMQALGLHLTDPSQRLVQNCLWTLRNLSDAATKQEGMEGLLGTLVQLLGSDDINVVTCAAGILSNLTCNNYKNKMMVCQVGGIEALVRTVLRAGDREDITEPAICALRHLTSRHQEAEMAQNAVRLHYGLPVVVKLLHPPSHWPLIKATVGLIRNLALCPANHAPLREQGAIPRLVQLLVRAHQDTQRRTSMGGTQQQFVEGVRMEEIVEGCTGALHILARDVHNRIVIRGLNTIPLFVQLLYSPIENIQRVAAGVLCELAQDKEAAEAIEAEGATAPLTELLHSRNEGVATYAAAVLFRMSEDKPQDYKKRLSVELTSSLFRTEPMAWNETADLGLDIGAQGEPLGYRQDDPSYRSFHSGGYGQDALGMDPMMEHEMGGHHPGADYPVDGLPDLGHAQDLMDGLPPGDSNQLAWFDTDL

[2] = target: T2, beta-catenin/TCF4 engagement (Homo sapiens, UniProt P35222); test: Nano-BRET target engagement assay (B-cat-Halo & TCF4-Luc in HEK293 cells); type: cell-based; settings: read-out: NanoBRET Abs IC50
T2 construct: expressed in transfected cells; host or cells: HEK293
T2 sequence (P35222 1-781): T1 sequence (P35222 1-781)

Row | Structure (SMILES) | IC50 [1] [µM] | IC50 ([2]; absolute IC50) [µM] | IC50 [2] [µM]
1 | CC(=O)N1CCC[C@]12CC=CCCCC1(CCCC=CCCCOC(=O)N3CC[C@@](C(=O)N[C@@H](Cc4ccsc4)C(=O)N[C@@H](Cc4csc5ccccc45)C(=O)N[C@@H](Cc4ccc(O)cc4)C(N)=O)(C3)NC(=O)[C@H](CC(N)=O)NC(=O)[C@H](Cc3ccccc3)NC(=O)[C@H](C)NC(=O)C(C)(C)NC(=O)[C@H]([C@@H](C)O)NC(=O)[C@H](CC(N)=O)NC1=O)NC(=O)[C@H](CC(C)(C)C)NC(=O)[C@H](CC(=O)O)NC2=O (stereo partly drawn) [I-2478, Ac-PL3-Asp-Npg-B5-Asn-Thr-Aib-Ala-Phe-Asn-PyrS2-3Thi-BztA-Tyr-NH2] | 0.31 | > 20 | –
2 | CC(=O)N1CCC[C@]12CC=CCCCC1(CCCC=CCCCOC(=O)N3CC[C@@](C(=O)N[C@@H](Cc4ccsc4)C(=O)N[C@@H](Cc4csc5ccccc45)C(=O)N[C@H](C(N)=O)C(C)C)(C3)NC(=O)[C@H]([C@@H](C)O)NC(=O)[C@H](Cc3ccccc3)NC(=O)[C@H](C)NC(=O)[C@H](CCCCNC(C)C)NC(=O)[C@H](CN(CC(=O)O)CC(F)(F)F)NC(=O)[C@H](CC(=O)O)NC1=O)NC(=O)[C@H](CC(C)(C)C)NC(=O)[C@H](CC(=O)O)NC2=O (stereo partly drawn) [I-1764, Ac-PL3-Asp-Npg-B5-Asp-TfeGA-iPrLys-Ala-Phe-Thr-PyrS2-3Thi-BztA-Val-NH2] | 0.023 | > 20 | –
3 | CC(=O)N1CCC[C@]12CC=CCCCC1(CCCC=CCCCOC(=O)N3CC[C@@](C(=O)N[C@@H](Cc4ccccc4C(F)(F)F)C(=O)N[C@@H](Cc4c(C(F)(F)F)[nH]c5ccccc45)C(=O)N[C@@H](C)C(N)=O)(C3)NC(=O)[C@H](CC(C)C)NC(=O)[C@H](Cc3ccccc3)NC(=O)[C@H](C)NC(=O)[C@H](CCC(N)=O)NC(=O)[C@H](Cc3cccc(C(=O)O)c3)NC(=O)[C@H](CC(=O)O)NC1=O)NC(=O)[C@H](CC(C)(C)C)NC(=O)[C@H](CC(=O)O)NC2=O (stereo partly drawn) [I-2485, Ac-PL3-Asp-Npg-B5-Asp-3COOHF-Gln-Ala-Phe-Leu-PyrS2-2F3MeF-2F3MeW-Ala-NH2] | 4.75 | > 20 | –
4 | CC(=O)N1CCC[C@]12CC=CCCCC1(CCCC=CCCCOC(=O)N3CC[C@@](C(=O)N[C@@H](Cc4ccccc4C(F)(F)F)C(=O)N[C@@H](Cc4csc5ccccc45)C(=O)N[C@@H](CO)C(N)=O)(C3)NC(=O)[C@H](CC(C)C)NC(=O)[C@H](Cc3ccccc3)NC(=O)[C@H](C)NC(=O)[C@H](C)NC(=O)[C@H](Cn3cc(CC(=O)O)nn3)NC(=O)[C@H](CC(=O)O)NC1=O)NC(=O)[C@H](CC(C)(C)C)NC(=O)[C@H](CC(=O)O)NC2=O (stereo partly drawn) [I-2373, Ac-PL3-Asp-Npg-B5-Asp-[CH2CO2H]TriAzDap-Ala-Ala-Phe-Leu-PyrS2-2F3MeF-BztA-Ser-NH2] | 0.005 | 4 | –
5 | CC(=O)N1CCC[C@]12CC=CCCCC1(CCCC=CCCCOC(=O)N3CC[C@@](C(=O)N[C@@H](Cc4ccccc4Cl)C(=O)N[C@@H](Cc4csc5ccccc45)C(=O)N[C@H](C)C(N)=O)(C3)NC(=O)[C@H](C)NC(=O)[C@H](Cc3ccccc3)NC(=O)[C@H](C)NC(=O)[C@H](C)NC(=O)[C@H](Cc3cccc(C(=O)O)c3)NC(=O)[C@H](CC(=O)O)NC1=O)NC(=O)[C@H](CC(C)(C)C)NC(=O)[C@H](CC(=O)O)NC2=O (stereo partly drawn) [I-2026, Ac-PL3-Asp-Npg-B5-Asp-3COOHF-Ala-Ala-Phe-Ala-PyrS2-2C1F-BztA-dAla-NH2] | 0.026 | – | 9.7
6 | CC(=O)N1CCC[C@]12CC=CCCCC1(CCCC=CCCCOC(=O)N3CC[C@@](C(=O)N[C@@H](Cc4ccccc4Cl)C(=O)N[C@@H](Cc4csc5ccccc45)C(=O)N[C@@H](CCC(N)=O)C(N)=O)(C3)NC(=O)[C@H](CC(C)C)NC(=O)[C@H](Cc3ccccc3)NC(=O)CNC(=O)[C@H](C)NC(=O)[C@H](Cc3cccc(C(=O)O)c3)NC(=O)[C@H](CC(=O)O)NC1=O)NC(=O)[C@H](CC(C)(C)C)NC(=O)[C@H](CC(=O)O)NC2=O (stereo partly drawn) [I-1687, Ac-PL3-Asp-Npg-B5-Asp-3COOHF-Ala-Gly-Phe-Leu-PyrS2-2C1F-BztA-Gln-NH2] | 0.042 | 18.6 | –
7 | CCCC[C@@H]1NC(=O)[C@H](CC(=O)O)NC(=O)[C@]2(CC=CCCCC3(CCCC=CCCCOC(=O)N4CC[C@@](C(=O)N[C@@H](Cc5ccccc5)C(=O)N[C@@H](Cc5csc6ccccc56)C(=O)N[C@@H](CCC(N)=O)C(N)=O)(C4)NC(=O)[C@H](CC(C)C)NC(=O)[C@H](Cc4ccccc4)NC(=O)[C@H](C)NC(=O)[C@H](C)NC(=O)[C@H](CC(=O)O)NC(=O)[C@H](CC(=O)O)NC3=O)NC1=O)CCCN2C(C)=O (stereo partly drawn) [I-1403, Ac-PL3-Asp-nLeu-B5-Asp-Asp-Ala-Ala-Phe-Leu-PyrS2-Phe-BztA-Gln-NH2] | 0.006 | 29.1 | –
8 | CC(=O)N1CCC[C@]12CC=CCCCC1(CCCC=CCCCOC(=O)N3CC[C@@](C(=O)N[C@@H](Cc4ccccc4C(F)(F)F)C(=O)N[C@@H](Cc4c(C(F)(F)F)[nH]c5ccccc45)C(=O)N[C@@H](CCC(N)=O)C(N)=O)(C3)NC(=O)[C@H](CC(C)C)NC(=O)[C@H](Cc3ccccc3)NC(=O)[C@H](C)NC(=O)[C@H](C)NC(=O)[C@H](Cc3cccc(C(=O)O)c3)NC(=O)[C@H](CC(=O)O)NC1=O)NC(=O)[C@H](CC(C)(C)C)NC(=O)[C@H](CC(=O)O)NC2=O (stereo partly drawn) [I-2484, Ac-PL3-Asp-Npg-B5-Asp-3COOHF-Ala-Ala-Phe-Leu-PyrS2-2F3MeF-2F3MeW-Gln-NH2] | 6.29 | > 20 | –
9 | CC(=O)N1CCC[C@]12CC=CCCCC1(CCCC=CCCCOC(=O)N3CC[C@@](C(=O)N[C@@H](Cc4ccsc4)C(=O)N[C@@H](Cc4csc5ccccc45)C(=O)N[C@H](C(N)=O)C(C)C)(C3)NC(=O)[C@H](CC(C)C)NC(=O)[C@H](Cc3ccccc3)NC(=O)[C@H](C)NC(=O)[C@H](CC(=O)N(C)C)NC(=O)[C@H](Cc3cccc(C(=O)O)c3)NC(=O)[C@H](CC(=O)O)NC1=O)NC(=O)[C@H](CC(C)(C)C)NC(=O)[C@H](CC(=O)O)NC2=O (stereo partly drawn) [I-2191, Ac-PL3-Asp-Npg-B5-Asp-3COOHF-Me2Asn-Ala-Phe-Leu-PyrS2-3Thi-BztA-Val-NH2] | 0.016 | – | 29.5
10 | CC(=O)N1CCC[C@]12CC=CCCCC1(CCCC=CCCCOC(=O)N3CC[C@@](C(=O)N[C@@H](Cc4ccsc4)C(=O)N[C@@H](Cc4csc5ccccc45)C(=O)N[C@@H](Cc4ccccc4C(N)=O)C(N)=O)(C3)NC(=O)[C@H](CC(C)C)NC(=O)[C@H](Cc3ccccc3)NC(=O)[C@H](C)NC(=O)[C@H](C)NC(=O)[C@H](CN(CC(=O)O)CC(F)(F)F)NC(=O)[C@H](CC(=O)O)NC1=O)NC(=O)[C@H](CC(C)(C)C)NC(=O)[C@H](CC(=O)O)NC2=O (stereo partly drawn) [I-1707, Ac-PL3-Asp-Npg-B5-Asp-TfeGA-Ala-Ala-Phe-Leu-PyrS2-3Thi-BztA-2cbmf-NH2] | 0.019 | 6.1 | –
11 | CC(=O)N1CCC[C@]12CC=CCCCC1(CCCC=CCCCOC(=O)N3CC[C@@](C(=O)N[C@@H](Cc4ccsc4)C(=O)N[C@@H](Cc4csc5ccccc45)C(=O)N[C@@H](C)C(N)=O)(C3)NC(=O)[C@H](CC(C)C)NC(=O)[C@H](Cc3ccccc3)NC(=O)[C@H](C)NC(=O)[C@H](CC(N)=O)NC(=O)[C@H](Cc3cccc(C(=O)O)c3)NC(=O)[C@H](CC(=O)O)NC1=O)NC(=O)[C@H](CC(C)(C)C)NC(=O)[C@H](CC(=O)O)NC2=O (stereo partly drawn) [I-2049, Ac-PL3-Asp-Npg-B5-Asp-3COOHF-Asn-Ala-Phe-Leu-PyrS2-3Thi-BztA-Ala-NH2] | 0.005 | – | 4.5
12 | CC(=O)N1CCC[C@]12CC=CCCCC1(CCCC=CCOC(=O)N3CC[C@@](C(=O)N[C@@H](Cc4ccsc4)C(=O)N[C@@H](Cc4csc5ccccc45)C(=O)N[C@@H](CCC(N)=O)C(N)=O)(C3)NC(=O)[C@H](CC(C)C)NC(=O)[C@H](Cc3ccccc3)NC(=O)[C@H](C)NC(=O)[C@H](C)NC(=O)[C@H](CC(=O)O)NC(=O)[C@H](CC(=O)O)NC1=O)NC(=O)[C@H](CC(C)(C)C)NC(=O)[C@H](CC(=O)O)NC2=O (stereo partly drawn) [I-1818, Ac-PL3-Asp-Npg-B5-Asp-Asp-Ala-Ala-Phe-Leu-PyrS-3Thi-BztA-Gln-NH2] | 0.236 | > 20 | –
13 | CC(=O)N1CCC[C@]12CC=CCCCC1(CCCC=CCCCOC(=O)N3CC[C@@](C(=O)N[C@@H](Cc4ccsc4)C(=O)N[C@@H](Cc4ccc5c(c4)CCC5)C(=O)N[C@@H](CCC(N)=O)C(N)=O)(C3)NC(=O)[C@H](CC(C)C)NC(=O)[C@H](Cc3ccccc3)NC(=O)[C@H](C)NC(=O)[C@H](C)NC(=O)[C@H](Cc3cccc(C(=O)O)c3)NC(=O)[C@H](CC(=O)O)NC1=O)NC(=O)[C@H](CC(C)(C)C)NC(=O)[C@H](CC(=O)O)NC2=O (stereo partly drawn) [I-2295, Ac-PL3-Asp-Npg-B5-Asp-3COOHF-Ala-Ala-Phe-Leu-PyrS2-3Thi-5IndA-Gln-NH2] | 0.005 | 3.3 | –
